SMILES strings stand for the structures.

The subject of the first assay is NCI-H1755. Kind of assay: relative viability (nuclei count vs DMSO), 5 days (fraction); higher = more cells survive. Particulars: first compound 0.8 µM. In short, it runs like this:
(§1)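 Lung cancer cell lines in 1536-well plates got either a single drug or a fixed anchor-drug dose together with five library-drug doses (not always all listed) in √10 steps, by pin tool, on the day after seeding. Nuclei were counted after 5 days, and relative viability is the treated-to-vehicle ratio of nuclei counts. Values are medians of duplicate plates.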
As to `CCCCCCCCCCCC1=C(O)C(=O)C=C(O)C1=O` [Embelin] + Cc1nc(Nc2ncc(C(=O)Nc3c(C)cccc3Cl)s2)cc(N2CCN(CCO)CC2)n1 [Dasatinib] (partner 0.075 µM), the relative viability was determined as 0.49.
In turn, `CCCCCCCCCCCC1=C(O)C(=O)C=C(O)C1=O` [Embelin] + COc1cccc2cc(-c3nc([C@H]4CC[C@H](C(=O)O)CC4)n4ncnc(N)c34)[nH]c12 [OSI-027] (partner 0.5 µM) returned a relative viability of 0.709.
`CCCCCCCCCCCC1=C(O)C(=O)C=C(O)C1=O` [Embelin] + Nc1nc2[nH]cc(CCc3ccc(C(=O)N[C@@H](CCC(=O)O)C(=O)O)cc3)c2c(=O)[nH]1 [Pemetrexed] (partner 0.2 µM) yielded a relative viability of 0.468.

Still in this assay, the particulars now being: first compound 2.53 µM.
Regarding `CCCCCCCCCCCC1=C(O)C(=O)C=C(O)C1=O` [Embelin] + N=C(N)NC(=N)NCCc1ccccc1 [Phenformin] (partner 250 µM), the relative viability stood at 0.608.
On the same count and under the same terms, under `CCCCCCCCCCCC1=C(O)C(=O)C=C(O)C1=O` [Embelin] + CCNC(=O)c1noc(-c2cc(C(C)C)c(O)cc2O)c1-c1ccc(CN2CCOCC2)cc1 [Luminespib] (partner 0.01 µM) stands 0.637; under `CCCCCCCCCCCC1=C(O)C(=O)C=C(O)C1=O` [Embelin] + Cc1nc(Nc2ncc(C(=O)Nc3c(C)cccc3Cl)s2)cc(N2CCN(CCO)CC2)n1 [Dasatinib] (partner 0.075 µM), 0.379; under `CCCCCCCCCCCC1=C(O)C(=O)C=C(O)C1=O` [Embelin] + COc1cccc2cc(-c3nc([C@H]4CC[C@H](C(=O)O)CC4)n4ncnc(N)c34)[nH]c12 [OSI-027] (partner 0.5 µM), 0.634.
`CCCCCCCCCCCC1=C(O)C(=O)C=C(O)C1=O` [Embelin] + Nc1nc2[nH]cc(CCc3ccc(C(=O)N[C@@H](CCC(=O)O)C(=O)O)cc3)c2c(=O)[nH]1 [Pemetrexed] (partner 0.2 µM): the relative viability is 0.433.

The same assay, now with this note: first compound 8 µM.
`CCCCCCCCCCCC1=C(O)C(=O)C=C(O)C1=O` [Embelin] + N=C(N)NC(=N)NCCc1ccccc1 [Phenformin] (partner 250 µM) showed a relative viability of 0.6.
`CCCCCCCCCCCC1=C(O)C(=O)C=C(O)C1=O` [Embelin] + CCNC(=O)c1noc(-c2cc(C(C)C)c(O)cc2O)c1-c1ccc(CN2CCOCC2)cc1 [Luminespib] (partner 0.01 µM) came in with a relative viability of 0.421.
For the molecule `CCCCCCCCCCCC1=C(O)C(=O)C=C(O)C1=O` [Embelin] + Cc1nc(Nc2ncc(C(=O)Nc3c(C)cccc3Cl)s2)cc(N2CCN(CCO)CC2)n1 [Dasatinib] (partner 0.075 µM), the relative viability came out at 0.407.
Molecule `CCCCCCCCCCCC1=C(O)C(=O)C=C(O)C1=O` [Embelin] + COc1cccc2cc(-c3nc([C@H]4CC[C@H](C(=O)O)CC4)n4ncnc(N)c34)[nH]c12 [OSI-027] (partner 0.5 µM) returned a relative viability of 0.691.
Molecule `CCCCCCCCCCCC1=C(O)C(=O)C=C(O)C1=O` [Embelin] + Nc1nc2[nH]cc(CCc3ccc(C(=O)N[C@@H](CCC(=O)O)C(=O)O)cc3)c2c(=O)[nH]1 [Pemetrexed] (partner 0.2 µM) showed a relative viability of 0.46.

In a further assay the test system is NCI-H1793. The description is as above. Particulars: first compound 0.08 µM. An outline of the steps: as §1
`CCCCCCCCCCCC1=C(O)C(=O)C=C(O)C1=O` [Embelin] + N=C(N)NC(=N)NCCc1ccccc1 [Phenformin] (partner 250 µM): the relative viability turned out to be 0.355.
Regarding `CCCCCCCCCCCC1=C(O)C(=O)C=C(O)C1=O` [Embelin] + CCNC(=O)c1noc(-c2cc(C(C)C)c(O)cc2O)c1-c1ccc(CN2CCOCC2)cc1 [Luminespib] (partner 0.01 µM), the relative viability was found to be 0.175.
As to `CCCCCCCCCCCC1=C(O)C(=O)C=C(O)C1=O` [Embelin] + Cc1nc(Nc2ncc(C(=O)Nc3c(C)cccc3Cl)s2)cc(N2CCN(CCO)CC2)n1 [Dasatinib] (partner 0.075 µM), the relative viability is 0.397.
Molecule `CCCCCCCCCCCC1=C(O)C(=O)C=C(O)C1=O` [Embelin] + COc1cccc2cc(-c3nc([C@H]4CC[C@H](C(=O)O)CC4)n4ncnc(N)c34)[nH]c12 [OSI-027] (partner 0.5 µM) gave a relative viability of 0.281.
`CCCCCCCCCCCC1=C(O)C(=O)C=C(O)C1=O` [Embelin] + Nc1nc2[nH]cc(CCc3ccc(C(=O)N[C@@H](CCC(=O)O)C(=O)O)cc3)c2c(=O)[nH]1 [Pemetrexed] (partner 0.2 µM): the relative viability was 0.82.

Staying with this assay, now noted: first compound 0.8 µM.
Turning to `CCCCCCCCCCCC1=C(O)C(=O)C=C(O)C1=O` [Embelin] + N=C(N)NC(=N)NCCc1ccccc1 [Phenformin] (partner 250 µM), the relative viability was found to be 0.42.
For the molecule `CCCCCCCCCCCC1=C(O)C(=O)C=C(O)C1=O` [Embelin] + CCNC(=O)c1noc(-c2cc(C(C)C)c(O)cc2O)c1-c1ccc(CN2CCOCC2)cc1 [Luminespib] (partner 0.01 µM), the relative viability turned out to be 0.192.
`CCCCCCCCCCCC1=C(O)C(=O)C=C(O)C1=O` [Embelin] + Cc1nc(Nc2ncc(C(=O)Nc3c(C)cccc3Cl)s2)cc(N2CCN(CCO)CC2)n1 [Dasatinib] (partner 0.075 µM) had a relative viability of 0.432.
Regarding `CCCCCCCCCCCC1=C(O)C(=O)C=C(O)C1=O` [Embelin] + COc1cccc2cc(-c3nc([C@H]4CC[C@H](C(=O)O)CC4)n4ncnc(N)c34)[nH]c12 [OSI-027] (partner 0.5 µM), the relative viability is 0.367.
On the same count and under the same terms, the figure for `CCCCCCCCCCCC1=C(O)C(=O)C=C(O)C1=O` [Embelin] + Nc1nc2[nH]cc(CCc3ccc(C(=O)N[C@@H](CCC(=O)O)C(=O)O)cc3)c2c(=O)[nH]1 [Pemetrexed] (partner 0.2 µM) is 1.06.

Still in this assay, the particulars now being: first compound 2.53 µM.
In turn, `CCCCCCCCCCCC1=C(O)C(=O)C=C(O)C1=O` [Embelin] + N=C(N)NC(=N)NCCc1ccccc1 [Phenformin] (partner 250 µM) gave a relative viability of 0.473.
Turning to `CCCCCCCCCCCC1=C(O)C(=O)C=C(O)C1=O` [Embelin] + CCNC(=O)c1noc(-c2cc(C(C)C)c(O)cc2O)c1-c1ccc(CN2CCOCC2)cc1 [Luminespib] (partner 0.01 µM), the relative viability was determined as 0.207.
The same measure, in the same setting: under `CCCCCCCCCCCC1=C(O)C(=O)C=C(O)C1=O` [Embelin] + Cc1nc(Nc2ncc(C(=O)Nc3c(C)cccc3Cl)s2)cc(N2CCN(CCO)CC2)n1 [Dasatinib] (partner 0.075 µM) stands 0.446; under `CCCCCCCCCCCC1=C(O)C(=O)C=C(O)C1=O` [Embelin] + COc1cccc2cc(-c3nc([C@H]4CC[C@H](C(=O)O)CC4)n4ncnc(N)c34)[nH]c12 [OSI-027] (partner 0.5 µM), 0.237; under `CCCCCCCCCCCC1=C(O)C(=O)C=C(O)C1=O` [Embelin] + Nc1nc2[nH]cc(CCc3ccc(C(=O)N[C@@H](CCC(=O)O)C(=O)O)cc3)c2c(=O)[nH]1 [Pemetrexed] (partner 0.2 µM), 1.18.

The assay is the same for the next values; noted with them: first compound 8 µM.
Molecule `CCCCCCCCCCCC1=C(O)C(=O)C=C(O)C1=O` [Embelin] + N=C(N)NC(=N)NCCc1ccccc1 [Phenformin] (partner 250 µM) gave a relative viability of 0.352.
`CCCCCCCCCCCC1=C(O)C(=O)C=C(O)C1=O` [Embelin] + CCNC(=O)c1noc(-c2cc(C(C)C)c(O)cc2O)c1-c1ccc(CN2CCOCC2)cc1 [Luminespib] (partner 0.01 µM) showed a relative viability of 0.186.

Values taken from the supplement of paper PMC10307832.
